# Non-standard residues stand in square brackets, D forms with d. Residues, ends and D or L forms follow the SMILES beside them. Dab = NCC[C@H](N)C(=O)O
# How the values were obtained:
# in vivo = test: in vivo; design: species or system CD-1 mice
# Procedure: Pharmacokinetic Study after Single Intravenous, Subcutaneous and Intraperitoneal Administration in Mice Pharmacokinetic study after single intravenous (i.v.) and subcutaneous (s.c.) administration was performed for the compound of Example 1 (“Ex. 1”). CD-1 mice (20-25 g) were used in the study. Physiological saline was used a vehicle. The volume was 2 ml/kg i.v., and 5 ml/kg s.c. and the peptide Ex. 1 was injected to give a final intravenous dose of 1 mg/kg, and a subcutaneous dose of 5 mg/kg. […] Plasma was removed from pelleted cells upon centrifugation and frozen at −80° C. prior to HPLC-MS analysis. “Blank” mouse plasma from untreated animals was used. Aliquots of plasma of 0.2 ml each were spiked with 50 ng of propranolol (Internal Standard, IS), (sample preparation by solid phase extraction on OASIS® BIB cartridges (Waters)) and with known amounts of Ex. 1 in order to obtain 9 plasma calibration samples in the range 10-5000 nM. […] The plate containing eluates was introduced into the concentrator system and taken to dryness. […] Samples coming from animal treatments were pooled in order to obtain an appropriate volume for the extraction. If the total volume obtained was less than 0.2 ml the appropriate amount of “blank” mouse plasma was added in order to keep the matrix identical to the calibration curve. Samples were than spiked with IS and processed as described for the calibration curve. PK analysis was performed on pooled data (generally n=2 or 3) using the software Win Nonlin (Pharsight). The area under the curve AUC was calculated by the linear trapezoidal rule. Elimination half-life was calculated by the linear regression on at least three data points during the elimination phase. The time intervals selected for the half-life determinations were evaluated by the correlation coefficient (r^2), which should be at least above 0.85 and most optimally above 0.96. In case of i.v. administration the initial concentration at tzero was determined by extrapolation of the curve through the first two time points. Finally bioavailability after […]. administration was calculated from the normalised AUCinf_D_obs ration after s.c. versus i.v. administration.
# [1] = system: Pseudomonas aeruginosa (ATCC 27853); test: In vivo septicemia assay; design: species or system CD-1 mice; conditions: groups of 6 mice
# Procedure: Groups of 6 CD-1 (Crl.) derived male mice weighing 24±2 g were used. The mice were each inoculated intravenously (IV) with an LD90-100 of Pseudomonas aeruginosa (ATCC 27853) (9×10^6 CFU/0.5 ml/mouse) in brain heart infusion broth without 5% mucin. Compound at doses of 5, 2.5, 1, 0.5, 0.25 and 0.1 mg/kg, vehicle (0.9% NaCl, 10 ml/kg) was administered subcutaneously (SC) to test animals at 1 hour after bacterial inoculation. Also, an additional group was treated twice with compound at a dose of 5 mg/kg at 1 and 6 hours after bacterial inoculation. Mortality was recorded once daily for 7 days following the bacterial inoculation and an increase of survival of the animals by 50 percent or more (^3 50%) after the bacterial inoculation, relative to vehicle control, indicates significant antimicrobial effect. The MED (ED50) was determined by nonlinear regression using Graph-Pad Prism (Graph Pad Software, USA).
# Septicaemia experiment in mice: LD90-100 of Pseudomonas aeruginosa (ATCC 27853) (9×10^6 CFU/0.5 ml/mouse IV and after 1 h Ex. 1 s.c.
# Septicaemia experiment in mice: LD90-100 of Pseudomonas aeruginosa (ATCC 27853) (9×10^6 CFU/0.5 ml/mouse IV), and after 1 and 5 h Ex. 40 s.c.
# Septicaemia experiment in mice: LD90-100 of Pseudomonas aeruginosa (ATCC 27853) (9×10^6 CFU/0.5 ml/mouse IV), and after 1 and 5 h Ex. 50 s.c.
# [2] = system: Pseudomonas aeruginosa P8191900; assay type: cell-based; conditions: P8191900
# How it was run: (§1)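 Inoculum standardised to 0.5 McFarland (approx. 10^6 CFU/ml) in Mueller-Hinton + 0.02% BSA was combined equally with serially halved peptide concentrations in the same medium, per a modified NCCLS microdilution procedure.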
# [3] = system: Pseudomonas aeruginosa P1021913; assay type: cell-based; conditions: P1021913
# How it was run: as §1
# [4] = system: Pseudomonas aeruginosa IMP 1 Livermore 3140; assay type: cell-based; conditions: IMP 1 Livermore 3140
# How it was run: as §1
# [5] = system: Pseudomonas aeruginosa P1021903; assay type: cell-based; conditions: P1021903
# How it was run: as §1
# [6] = 0.1 mg/kg, 1 h after inoculation
# [7] = 0.25 mg/kg, 1 h after inoculation
# [8] = 0.5 mg/kg, 1 h after inoculation
# [9] = 2.5 mg/kg, 1 h after inoculation
smiles,measurement,setting,value
CC[C@H](C)[C@@H]1NC(=O)[C@H](Cc2c[nH]c3ccccc23)NC(=O)[C@H]([C@@H](C)O)NC(=O)[C@@H]2CCCN2C(=O)[C@H]2CCCN2C(=O)[C@H](CCN)NC(=O)[C@H](C)NC(=O)[C@H](CCN)NC(=O)[C@H](CCN)NC(=O)[C@H](Cc2c[nH]c3ccccc23)NC(=O)[C@H](CCN)NC(=O)[C@H](CCN)NC(=O)[C@H](CCCCN)NC(=O)[C@H](CCN)NC1=O [Example 1] (cyclo(TWI[Dab]K[Dab][Dab]W[Dab][Dab]A[Dab][dP]P)),Average MIC,P. aeruginosa,0.10 µg/mL
same,Vd,"in vivo; CD-1, mouse, iv, 1 mg/kg",1.14 L/kg
same,clearance,"in vivo; CD-1, mouse, iv, 1 mg/kg",25.7 mL/min/kg
same,level at 0.25 h,"in vivo; CD-1, mouse, iv, 1 mg/kg",575 ng/mL
same,level at 1 h,"in vivo; CD-1, mouse, iv, 1 mg/kg",177 ng/mL
same,level at 3 h,"in vivo; CD-1, mouse, iv, 1 mg/kg",10.6 ng/mL
same,level at 8 h,"in vivo; CD-1, mouse, sc, 5 mg/kg",7.3 ng/mL
same,bioavailability,"in vivo; mouse, 5 mg/kg",118.2%
same,bioavailability,"in vivo; mouse, 5 mg/kg, Bioavailability",118%
same,AUC(0-inf),"in vivo; mouse, iv, 1 mg/kg",680 ng·h/mL
same,C0,"in vivo; mouse, iv, 1 mg/kg",2170 ng/mL
same,Cmax_D,"in vivo; mouse, iv, 1 mg/kg",1268.0 kg·ng/mL/mg
same,Tmax,"in vivo; mouse, iv, 1 mg/kg",4.8 min
same,half-life,"in vivo; mouse, iv, 1 mg/kg",31.8 min
same,bioavailability,"in vivo; mouse, iv, 1 mg/kg, Bioavailability",100%
same,Cmax,"in vivo; mouse, iv, 1 mg/kg, Cmax",1270 ng/mL
same,AUC(0-inf),"in vivo; mouse, sc, 5 mg/kg",4020 ng·h/mL
same,Cl_obs,"in vivo; mouse, sc, 5 mg/kg",20.83 mL/min/kg
same,Cmax,"in vivo; mouse, sc, 5 mg/kg",2333.3 ng/mL
same,Cmax_D,"in vivo; mouse, sc, 5 mg/kg",466.7 kg·ng/mL/mg
same,Tmax,"in vivo; mouse, sc, 5 mg/kg",34.8 min
same,Vz_obs,"in vivo; mouse, sc, 5 mg/kg",1.7056 L/kg
same,half-life,"in vivo; mouse, sc, 5 mg/kg",57 min
same,Cmax,"in vivo; mouse, sc, 5 mg/kg, Cmax",2330 ng/mL
same,Dead,[1]; [6],5
same,Survivors,[1]; [6],1
same,Dead,[1]; [7],5
same,Survivors,[1]; [7],1
same,Dead,[1]; [8],2
same,Survivors,[1]; [8],4
same,Dead,"[1]; 1 mg/kg, 1 h after inoculation",1
same,Survivors,"[1]; 1 mg/kg, 1 h after inoculation",5
same,Dead,[1]; [9],0
same,Survivors,[1]; [9],6
same,Dead,"[1]; 5 mg/kg, 1 h after inoculation",0
same,Survivors,"[1]; 5 mg/kg, 1 h after inoculation",6
same,Dead,"[1]; 10 (2 × 5) mg/kg, 7 days",0
same,Survivors,"[1]; 10 (2 × 5) mg/kg, 7 days",6
same,MIC P. aeruginosa P8191900,[2],0.07 µg/mL
same,MIC P. aeruginosa P1021913,[3],0.13 µg/mL
same,MIC P. aeruginosa IMP1 Livermore 3140,[4],0.18 µg/mL
same,MIC P. aeruginosa P1021903,[5],0.07 µg/mL
